From ChEMBL document CHEMBL5236635, “Structure-Based Drug Design and Synthesis of Novel N-Aryl-2,4-bithiazole-2-amine CYP1B1-Selective Inhibitors in Overcoming Taxol Resistance in A549 Cells” (J Med Chem, 2022) come the findings set out here.

The source made the active and inactive calls. The calls are words filed in the database; no cut-off is given here.

The test system of data set [1] is A549/TR. The data set can be described thus: Synergistic antiproliferative activity against human A549/Taxol cells assessed as increase in taxol by measuring combination index at 7.50 uM incubated for 72 hrs in presence of 0.06 uM taxol by MTT assay. Type of data set: functional. Conditions: dose 7.5 µM. On the technique in general: Tetrazolium assays rely on reduction of a dye to a coloured formazan, in cell work by metabolically active cells.

Data set [2] concerns A549/TR. The data set can be described thus: Reversal of taxol resistance in human A549/Taxol cells assessed as suppression of P-gp expression level at 2.5 to 10 uM incubated for 20 mins by multimode plate reader analysis. Format: functional, cell-based. Conditions: dose 2.5-10 µM.
The test system of data set [3] is A549/TR. The data set can be described thus: Synergistic antiproliferative activity against human A549/Taxol cells assessed as increase in taxol by measuring combination index at 3.75 uM incubated for 72 hrs in presence of 0.50 uM taxol by MTT assay. Type of data set: functional.
Data set [4] deals with A549/TR. The data set can be described thus: Synergistic antiproliferative activity against human A549/Taxol cells assessed as increase in taxol by measuring combination index at 15 uM incubated for 72 hrs in presence of 0.06 uM taxol by MTT assay. Type of data set: functional.
For data set [5], the system named is A549/TR. The data set can be described thus: Synergistic antiproliferative activity against human A549/Taxol cells assessed as increase in taxol by measuring combination index at 15 uM incubated for 72 hrs in presence of 0.13 uM taxol by MTT assay. Type of data set: functional.
The subject of data set [6] is A549/TR. The data set can be described thus: Synergistic antiproliferative activity against human A549/Taxol cells assessed as increase in taxol by measuring combination index at 7.50 uM incubated for 72 hrs in presence of 1 uM taxol by MTT assay. Type of data set: functional. Conditions: dose 7.5 µM.
The target in data set [7] is T1, Cytochrome P450 1B1 (Homo sapiens, UniProt Q16678).
T1 sequence (Q16678 whole entry): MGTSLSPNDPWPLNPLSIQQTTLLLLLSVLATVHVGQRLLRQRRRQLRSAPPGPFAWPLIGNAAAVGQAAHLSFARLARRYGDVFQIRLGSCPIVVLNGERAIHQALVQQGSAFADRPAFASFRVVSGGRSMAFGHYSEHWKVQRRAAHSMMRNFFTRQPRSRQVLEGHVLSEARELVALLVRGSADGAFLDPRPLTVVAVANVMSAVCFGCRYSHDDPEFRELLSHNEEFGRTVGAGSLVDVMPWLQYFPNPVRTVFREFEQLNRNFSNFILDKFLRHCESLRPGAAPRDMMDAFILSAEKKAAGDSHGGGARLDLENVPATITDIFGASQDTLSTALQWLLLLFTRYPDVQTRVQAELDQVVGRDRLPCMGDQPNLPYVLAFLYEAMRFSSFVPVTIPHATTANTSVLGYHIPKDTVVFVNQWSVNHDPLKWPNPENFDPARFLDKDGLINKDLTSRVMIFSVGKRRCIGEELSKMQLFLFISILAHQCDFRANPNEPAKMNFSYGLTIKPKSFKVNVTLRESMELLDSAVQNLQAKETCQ
The data set can be described thus: Inhibition of recombinant human CYP1B1 using 7-ethyl-0-resorufin as substrate incubated for 30 mins in presence of NADPH by EROD assay.

Data set [8] has as its system A549/TR. The data set can be described thus: Synergistic antiproliferative activity against human A549/Taxol cells assessed as increase in taxol by measuring combination index at 3.75 uM incubated for 72 hrs in presence of 0.06 uM taxol by MTT assay. Type of data set: functional.
Data set [9] concerns the target T2, Mitogen-activated protein kinase; ERK1/ERK2 (Homo sapiens) (UniProt P27361+P28482). The data set can be described thus: Inhibition of ERK1/2 pathway in human A549/Taxol cells assessed as decrease in phosphorylated ERK1/2 level at 2.5 to 5 uM incubated for 24 hrs. Format: cell-based. Conditions: dose 2.5-5 µM.
The subject of data set [10] is A549. The data set can be described thus: Inhibition of DMBA-induced cell migration in human A549 cells incubated for 48 hrs by inverted microscopic analysis. Format: functional, cell-based. Conditions: dose 5.0 µM.
In data set [11] the test system is NCI-H460. The data set can be described thus: Inhibition of DMBA-induced CYP1B1 overexpression in human NCI-H460 cells assessed as effect on E-cadherin level at 5 uM incubated for 24 hrs by densitometry analysis. Format: functional, cell-based.
Data set [12] has as its system NCI-H460. The data set can be described thus: Inhibition of DMBA-induced CYP1B1 expression level in human NCI-H460 cells at 5 uM incubated for 24 hrs. Type of data set: functional, cell-based.
Data set [13] concerns A549. The data set can be described thus: Inhibition of DMBA-induced CYP1B1 overexpression in human A549 cells assessed as increase in Paxillin level incubated for 24 hrs by densitometry analysis. Format: functional, cell-based. Conditions: dose 5.0 µM.
Data set [14] concerns NCI-H460. The data set can be described thus: Inhibition of DMBA-induced CYP1B1 overexpression in human NCI-H460 cells assessed as increase in snail level incubated for 24 hrs by densitometry analysis. Type of data set: functional, cell-based. Conditions: dose 5.0 µM.
The test system of data set [15] is NCI-H460. The data set can be described thus: Inhibition of cell migration in DMBA-induced human NCI-H460 cells at 5 uM incubated for 48 hrs by inverted microscopic analysis. Format: functional, cell-based.
The subject of data set [16] is A549. The data set can be described thus: Downregulation of DMBA-induced CYP1B1 expression level in human A549 cells at 5 uM incubated for 24 hrs. Type of data set: functional, cell-based.
Data set [17] concerns A549. The data set can be described thus: Inhibition of DMBA-induced CYP1B1 overexpression in human A549 cells assessed as increase in snail level incubated for 24 hrs by densitometry analysis. Format: functional, cell-based. Conditions: dose 5.0 µM.
Data set [18] addresses T3, CYP1B1 (Homo sapiens, UniProt Q16678).
T3 sequence (Q16678 whole entry): T1 sequence (Q16678 whole entry)
The data set can be described thus: Inhibition of recombinant human CYP1B1 assessed as inhibition ratio at 100 nM using 7-ethyl-0-resorufin as substrate incubated for 30 mins in presence of NADPH by EROD assay relative to control. Conditions: recombinant enzyme.

The subject of data set [19] is NCI-H460. The data set can be described thus: Upregulation of DMBA-induced CYP1B1 expression level in human NCI-H460 cells incubated for 24 hrs. Type of data set: functional, cell-based. Conditions: dose 1-10 µM.
Data set [20] relates to A549. The data set can be described thus: Inhibition of DMBA-induced CYP1B1 overexpression in human A549 cells assessed as effect on MMP-9 level at 5 uM incubated for 24 hrs by densitometry analysis. Format: functional, cell-based.
The target in data set [21] is T2, Mitogen-activated protein kinase; ERK1/ERK2 (Homo sapiens). The data set can be described thus: Inhibition of ERK1/2 pathway in human A549/Taxol cells assessed as decrease in phosphorylated ERK1/2 level at 5 uM incubated for 24 hrs. Format: cell-based.

T2 sequence (P27361 whole entry, looked up): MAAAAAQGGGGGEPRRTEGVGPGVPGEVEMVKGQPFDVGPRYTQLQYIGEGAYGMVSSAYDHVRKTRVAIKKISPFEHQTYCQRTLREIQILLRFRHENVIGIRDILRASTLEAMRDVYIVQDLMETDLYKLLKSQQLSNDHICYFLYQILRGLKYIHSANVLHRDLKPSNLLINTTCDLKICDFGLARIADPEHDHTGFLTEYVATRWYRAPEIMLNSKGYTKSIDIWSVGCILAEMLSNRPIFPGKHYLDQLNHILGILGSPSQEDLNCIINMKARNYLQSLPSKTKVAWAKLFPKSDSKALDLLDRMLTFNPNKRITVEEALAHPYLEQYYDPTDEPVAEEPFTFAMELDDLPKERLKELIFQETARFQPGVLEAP
T2 sequence (P28482 whole entry, looked up): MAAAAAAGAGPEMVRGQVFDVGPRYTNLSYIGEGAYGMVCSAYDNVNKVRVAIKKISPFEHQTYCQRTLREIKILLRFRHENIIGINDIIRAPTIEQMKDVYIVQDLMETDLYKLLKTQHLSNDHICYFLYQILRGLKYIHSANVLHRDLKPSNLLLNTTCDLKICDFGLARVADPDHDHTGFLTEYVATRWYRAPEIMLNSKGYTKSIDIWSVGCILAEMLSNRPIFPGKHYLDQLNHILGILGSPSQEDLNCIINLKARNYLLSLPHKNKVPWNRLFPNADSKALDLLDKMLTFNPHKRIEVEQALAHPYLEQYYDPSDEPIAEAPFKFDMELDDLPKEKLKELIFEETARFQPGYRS

The term IC50 denotes the point on the concentration scale where inhibition reaches its midpoint. As usually defined, the inhibition is the relative decrease from the control value, in per cent. Take `COc1cc(Nc2nc(-c3nc(-c4ccccc4F)cs3)cs2)cc(OC)c1`: the CI amounted to 0.68 in data set [1]; 0.98 in data set [3]; 0.2 in [4]; 0.22 in [5]; 1.36 in [6]; 0.64 in data set [8]. Besides, the result in data set [2] was Active. In addition, the IC50 in [7] amounted to 6.6 nM. For the same molecule, the inhibition result in data set [9] is “Active”.
For `COc1cc(/C=C/c2ccc(OC)cc2OC)cc(OC)c1`, the inhibition entry in [10], in [13], in data set [14] and in data set [17] was “Dose-Dependent Effect” throughout. Moreover, the inhibition result in data set [11] and in data set [20] was “inactive” each time. The inhibition result in data set [12], in data set [15] and in [21] was “Active” each time. Also, in data set [16], the outcome was inactive. For the same molecule, the inhibition at 0.5 h, 0.1 µM in [18] worked out at 88.9%. Also, in data set [19], the Activity entry was “Dose-Dependent Effect”.
